From ChEMBL document CHEMBL4834494, “Discovery of the First Non-cGMP Mimetic Small Molecule Activators of cGMP-Dependent Protein Kinase 1 α (PKG1α)” (ACS Med Chem Lett, 2021)
In brackets after ≈: the same amount, converted by molar mass.

Columns and labels:
[1] = biological target: T1, cGMP-dependent protein kinase 1 (Homo sapiens, UniProt Q13976); assay: Activation of full length PKG1alpha (unknown origin) using Glass-tide peptide substrate incubated for 120 mins followed by addition of ADP-Glo max reagent incubated for 40 mins
T1 sequence (Q13976 whole entry): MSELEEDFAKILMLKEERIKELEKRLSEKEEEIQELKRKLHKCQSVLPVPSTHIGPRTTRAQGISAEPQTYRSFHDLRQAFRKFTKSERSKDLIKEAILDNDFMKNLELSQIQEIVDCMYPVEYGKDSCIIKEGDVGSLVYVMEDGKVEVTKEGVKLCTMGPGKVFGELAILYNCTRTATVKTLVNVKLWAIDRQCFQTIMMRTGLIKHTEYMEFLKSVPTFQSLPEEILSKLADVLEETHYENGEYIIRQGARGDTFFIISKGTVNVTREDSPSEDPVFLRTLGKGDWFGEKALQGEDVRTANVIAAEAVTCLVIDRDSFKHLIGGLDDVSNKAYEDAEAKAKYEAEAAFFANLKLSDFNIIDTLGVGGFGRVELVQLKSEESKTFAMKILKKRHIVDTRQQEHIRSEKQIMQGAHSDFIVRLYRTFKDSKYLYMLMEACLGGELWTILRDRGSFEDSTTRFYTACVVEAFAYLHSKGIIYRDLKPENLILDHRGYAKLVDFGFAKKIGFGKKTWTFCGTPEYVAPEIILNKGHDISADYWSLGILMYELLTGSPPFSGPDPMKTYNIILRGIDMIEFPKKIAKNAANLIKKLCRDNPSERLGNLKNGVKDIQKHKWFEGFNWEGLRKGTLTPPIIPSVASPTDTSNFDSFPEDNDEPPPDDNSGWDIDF

[2] = Solubility of compound by pH 7 measured for 24 hrs by UPLC analysis; assay type: physicochemical; conditions: buffer
[3] = Apparent permeability in dog MDCKII cells; assay type: ADME, cell-based, Canis lupus familiaris, MDCK-II; conditions: MDCK
[4] = biological target: T1, cGMP-dependent protein kinase 1; assay: Activation of PKG1alpha (unknown origin) in human HEK293 cellls assessed as […] phosphorylation at Ser 239 incubated for 3 hrs by HTRF assay; assay type: cell-based

SMILES	EC50 [1] [µM]	solubility at 24 h [2] [µM]	Papp [3] [×10⁻⁶ cm/s]	EC50 [4] [µM]
Clc1cc(Cl)cc(CO[C@H]2CCCN(Cc3cccnc3)[C@H]2c2ccccc2)c1	112			
O=C(O)c1ccc(CN2CCC[C@H](O[C@H](CO)c3cc(Cl)cc(Cl)c3)[C@@H]2c2ccccc2)cc1	11	85 (≈ 42.5 µg/mL)	16	15
Clc1cc(Cl)cc(CO[C@H]2CCCN(Cc3ccncc3)[C@H]2c2ccccc2)c1	> 200			
OC[C@@H](O[C@H]1CCCN(Cc2cccc3nonc23)[C@H]1c1ccccc1)c1cc(Cl)cc(Cl)c1	8	154 (≈ 76.8 µg/mL)	11	141
O=C(O)c1ccc(CN2CCC[C@H](OCc3cc(Cl)cc(Cl)c3)[C@@H]2c2ccccc2)s1	76			
COc1ccc(C(=O)O)cc1CN1CCC[C@H](OCc2cc(Cl)cc(Cl)c2)[C@@H]1c1ccccc1	123			
Clc1cc(Cl)cc(CO[C@H]2CCCN(Cc3ncc[nH]3)[C@H]2c2ccccc2)c1		120 (≈ 50 µg/mL)	2	> 164
OC[C@@H](O[C@H]1CCCN(Cc2ncc[nH]2)[C@H]1c1ccccc1)c1cc(Cl)cc(Cl)c1		60 (≈ 26.8 µg/mL)	19	8.8
OC[C@@H](O[C@H]1CCCN(Cc2ccc(-c3nn[nH]n3)cc2)[C@H]1c1ccccc1)c1cc(Cl)cc(Cl)c1	131			
O=C(O)c1cncc(CN2CCC[C@H](OCc3cc(Cl)cc(Cl)c3)[C@@H]2c2ccccc2)c1	117			
O=C(O)c1cncc(CN2CCC[C@H](O[C@H](CO)c3cc(Cl)cc(Cl)c3)[C@@H]2c2ccccc2)c1	34	74 (≈ 37.1 µg/mL)	14	28
O=C(O)c1ccc(CN2CCC[C@H](OCc3cc(Cl)cc(Cl)c3)[C@@H]2c2ccccc2)cc1	76			
O=C(O)c1ccc(CN2CCC[C@H](OCc3cc(Cl)cc(Cl)c3)[C@@H]2c2ccccc2)cn1	> 200			
Cn1ccnc1CN1CCC[C@H](OCc2cc(Cl)cc(Cl)c2)[C@@H]1c1ccccc1	165			
COc1cc(C(=O)O)ccc1CN1CCC[C@H](OCc2cc(Cl)cc(Cl)c2)[C@@H]1c1ccccc1	62			
Clc1cc(Cl)cc(CO[C@H]2CCCN(Cc3nccs3)[C@H]2c2ccccc2)c1	> 200			
O=C(O)c1ccc2c(CN3CCC[C@H](O[C@H](CO)c4cc(Cl)cc(Cl)c4)[C@@H]3c3ccccc3)c[nH]c2c1	22	128 (≈ 69.1 µg/mL)	4	140
OC[C@@H](O[C@H]1CCCN(Cc2ccccc2Cc2nnco2)[C@H]1c1ccccc1)c1cc(Cl)cc(Cl)c1	3.7			
C[C@@H](O[C@H]1OCCN(Cc2n[nH]c(=O)[nH]2)[C@H]1c1ccc(F)cc1)c1cc(C(F)(F)F)cc(C(F)(F)F)c1 [APREPITANT]	> 200			
Clc1cc(Cl)cc(CO[C@H]2CCCN(Cc3ccc(-c4nn[nH]n4)cc3)[C@H]2c2ccccc2)c1	74			
CN1CCC[C@H](O[C@H](CO)c2cc(Cl)cc(Cl)c2)[C@@H]1c1ccccc1	42			
COC(=O)Nn1c(C[C@H]2CCC[C@H](OCc3cc(C(F)(F)F)cc(C(F)(F)F)c3)[C@@H]2c2ccccc2)n[nH]c1=O	4.5	154 (≈ 88.2 µg/mL)	15	12
Clc1cc(Cl)cc(CO[C@H]2CCCN(Cc3ccccn3)[C@H]2c2ccccc2)c1	> 200			
Cn1cc(CN2CCC[C@H](OCc3cc(Cl)cc(Cl)c3)[C@@H]2c2ccccc2)cn1	110			
Clc1cc(Cl)cc(CO[C@H]2CCCN(Cc3ncco3)[C@H]2c2ccccc2)c1	> 200			
CN1CCC[C@H](OCc2cc(Cl)cc(Cl)c2)[C@@H]1c1ccccc1	> 200			
Clc1cc(Cl)cc(CO[C@H]2CCCN(Cc3ccccc3)[C@H]2c2ccccc2)c1	> 200			
